Laboratory results published in patent US20250230193A1, “CYCLIC COMPOUND HAVING SELECTIVE KRAS INHIBITORY EFFECT ON HRAS AND NRAS” (CHUGAI SEIYAKU KABUSHIKI KAISHA, priority 2022, published 2025).

Legend:
[1] = molecular target: GDP-bound NRAS wild-type protein (Homo sapiens, UniProt P01111); test: Binding to NRAS by surface plasmon resonance (SPR), Single Cycle Kinetics; conditions: for NRAS/KRAS (ratio of KD value with respect to NRAS to KD value with respect to KRAS): GDP-bound NRAS wild-type vs GDP-bound KRAS wild-type
Chain of GDP-bound NRAS wild-type protein (P01111 whole entry): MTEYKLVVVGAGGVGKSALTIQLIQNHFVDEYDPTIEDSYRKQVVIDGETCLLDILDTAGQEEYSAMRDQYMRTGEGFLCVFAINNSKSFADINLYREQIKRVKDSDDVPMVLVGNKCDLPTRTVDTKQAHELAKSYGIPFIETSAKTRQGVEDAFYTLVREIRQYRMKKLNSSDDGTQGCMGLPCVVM

[2] = molecular target: GDP-bound HRAS wild-type protein (Homo sapiens, UniProt P01112); test: Binding to HRAS by surface plasmon resonance (SPR), Single Cycle Kinetics; conditions: for HRAS/KRAS (ratio of KD value with respect to HRAS to KD value with respect to KRAS): GDP-bound HRAS wild-type vs GDP-bound KRAS wild-type
Chain of GDP-bound HRAS wild-type protein (P01112 whole entry): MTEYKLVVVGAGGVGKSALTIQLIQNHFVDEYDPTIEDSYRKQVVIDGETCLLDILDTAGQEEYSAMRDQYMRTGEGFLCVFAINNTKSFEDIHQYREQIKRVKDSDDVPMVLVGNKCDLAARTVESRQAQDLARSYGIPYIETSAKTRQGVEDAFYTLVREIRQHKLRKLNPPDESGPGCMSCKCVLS

[3] = SPR, GDP-bound wild-type proteins

For `CC[C@H](C)[C@@H]1NC(=O)[C@H](COC)N(C)C(=O)C[C@@H](C(=O)N(C)C)N(C)C(=O)[C@H](C2CCCC2)N(C)C(=O)C2(CC(C)(C)C2)NC(=O)[C@@H]2C[C@@H](OC3CCCC3)CN2C(=O)[C@H](CCc2cc(F)c(C(F)(F)F)c(F)c2)NC(=O)CN(C)C(=O)[C@H](CC2CCCCC2)N2CC/C=C\C[C@@H](C2=O)N(C)C(=O)CN(C2CC2)C1=O` [PP2630], the “NRAS/KRAS (ratio of KD value with respect to GDP-bound NRAS wild-type protein to KD value with respect to KRAS)” value ([1]; class symbols) was “A (a compound having 10 or more and less than 20 is denoted as A)” and the “HRAS/KRAS (ratio of KD value with respect to GDP-bound HRAS wild-type protein to KD value with respect to KRAS)” value ([2]; class symbols) was “B (a compound having 3 or more and less than 10 is denoted as B)”.

`CC[C@H](C)[C@@H]1NC(=O)[C@H](CC(C)C)N(C)C(=O)C[C@@H](C(=O)N2CCOCC2)N(C)C(=O)[C@H](C2CCCC2)N(C)C(=O)C2(CCCC2)NC(=O)[C@@H]2C[C@H](OC)CN2C(=O)[C@H](CCc2cc(F)c(C(F)(F)F)c(F)c2)NC(=O)CN(C)C(=O)[C@H](Cc2ccc(C(F)(F)F)cc2)N2CCCC[C@@H](C2=O)N(C)C(=O)CN(C)C1=O` [PP0557] was tested, and the “NRAS/KRAS (ratio of KD value with respect to GDP-bound NRAS wild-type protein to KD value with respect to KRAS)” value ([1]; SPR) was “B (a compound having 3 or more and less than 10 is denoted as B)” and the “HRAS/KRAS (ratio of KD value with respect to GDP-bound HRAS wild-type protein to KD value with respect to KRAS)” value ([2]; SPR) was “B (a compound having 3 or more and less than 10 is denoted as B)”.

For `CCCOC[C@H]1C(=O)N[C@@H]([C@@H](C)CC)C(=O)N(C)CC(=O)N(C)[C@H]2C/C=C\CCN(C2=O)[C@@H](CC2CCC(F)(F)CC2)C(=O)N(C)CC(=O)N[C@@H](CCc2cc(F)c(C(F)(F)F)c(F)c2)C(=O)N2C[C@@H](C)C[C@H]2C(=O)NC2(CC(C)(C)C2)C(=O)N(C)[C@@H](C(CC)CC)C(=O)N(C)[C@H](C(=O)N(C)C)CC(=O)N1C` [PP2490], the “NRAS/KRAS (ratio of KD value with respect to NRAS to KD value with respect to KRAS)” value ([1]; SPR) was “AA (a compound having 20 or more is denoted as AA)” and the “HRAS/KRAS (ratio of KD value with respect to HRAS to KD value with respect to KRAS)” value ([2]; SPR) was “A (a compound having 10 or more and less than 20 is denoted as A)”.

With `CCC[C@H]1C(=O)N[C@@H]([C@@H](C)CC)C(=O)N(C)CC(=O)N(C)[C@H]2C/C=C\CCN(C2=O)[C@@H](Cc2ccc(C(F)(F)F)cc2)C(=O)N(C)CC(=O)N[C@@H](CCc2ccc3sc(C)c(C)c3c2)C(=O)N2C[C@H](OCC)C[C@H]2C(=O)NC2(CC(C)(C)C2)C(=O)N(C)[C@@H](C2CCCC2)C(=O)N(C)[C@H](C(=O)N(C)C)CC(=O)N1C` [PP2889] the “NRAS/KRAS (ratio of KD value with respect to GDP-bound NRAS wild-type protein to KD value with respect to KRAS)” value ([1]; class symbols) was “A (a compound having 10 or more and less than 20 is denoted as A)” and the “HRAS/KRAS (ratio of KD value with respect to GDP-bound HRAS wild-type protein to KD value with respect to KRAS)” value ([2]; class symbols) was “A (a compound having 10 or more and less than 20 is denoted as A)”.

With `CC[C@H](C)[C@@H]1NC(=O)[C@@H]2CCCCCc3ccc(cc3)C[C@@H](C(=O)N(C)CC(=O)N[C@@H](CCc3ccc(C(F)(F)F)c(OC)c3)C(=O)N3C[C@H](OC4CCC4)C[C@H]3C(=O)NC3(CC(C)(C)C3)C(=O)N(C)[C@@H](C3CCCC3)C(=O)N(C)[C@H](C(=O)N(C)C)CC(=O)N2C)N2CC/C=C\C[C@@H](C2=O)N(C)C(=O)CN(C)C1=O` [PP3073] the “NRAS/KRAS (ratio of KD value with respect to GDP-bound NRAS wild-type protein to KD value with respect to KRAS)” value [1, 3] was “A (a compound having 10 or more and less than 20 is denoted as A)” and the “HRAS/KRAS (ratio of KD value with respect to GDP-bound HRAS wild-type protein to KD value with respect to KRAS)” value [2, 3] was “A (a compound having 10 or more and less than 20 is denoted as A)”.

In the case of `CCO[C@@H]1C[C@H]2C(=O)NC3(CCC3)C(=O)N(C)[C@@H](C3CCCC3)C(=O)N(C)[C@H](C(=O)N(C)C)CC(=O)N(C)[C@@H](CC(C)(C)C)C(=O)N[C@@H]([C@@H](C)CC)C(=O)N(C)CC(=O)N(C)[C@H]3C/C=C\CCN(C3=O)[C@@H](Cc3ccc(C(F)(F)F)cc3)C(=O)N(C)CC(=O)N[C@@H](CCc3cc(F)c(C(F)(F)F)c(F)c3)C(=O)N2C1` [PP1117], the “NRAS/KRAS (ratio of KD value with respect to NRAS to KD value with respect to KRAS)” value ([1]; KD ratio, SPR) is reported as “A (a compound having 10 or more and less than 20 is denoted as A)” and the “HRAS/KRAS (ratio of KD value with respect to HRAS to KD value with respect to KRAS)” value ([2]; KD ratio, SPR) is reported as “A (a compound having 10 or more and less than 20 is denoted as A)”.

For `CCO[C@@H]1C[C@H]2C(=O)NC3(CCC3)C(=O)N(C)[C@@H](C3CCCC3)C(=O)N(C)[C@H](C(=O)N3CCOCC3)CC(=O)N(C)[C@@H](CC3CCCC3)C(=O)N[C@@H]([C@@H](C)CC)C(=O)N(C)CC(=O)N(C)[C@H]3CCCCCN(C3=O)[C@@H](Cc3ccc(C(F)(F)F)cc3)C(=O)N(C)CC(=O)N[C@@H](CCc3cc(F)c(C(F)(F)F)c(F)c3)C(=O)N2C1` [PP0685], the “NRAS/KRAS (ratio of KD value with respect to GDP-bound NRAS wild-type protein to KD value with respect to KRAS)” value ([1]; SPR) was “B (a compound having 3 or more and less than 10 is denoted as B)” and the “HRAS/KRAS (ratio of KD value with respect to GDP-bound HRAS wild-type protein to KD value with respect to KRAS)” value ([2]; SPR) was “B (a compound having 3 or more and less than 10 is denoted as B)”.
